Reference: the supplement of paper PMC10307832

Assays:
Assay in all cases: relative viability (nuclei count vs DMSO), 5 days (fraction); higher = more cells survive
JZL-184 = compound: C1CN(CCC1C(C2=CC3=C(C=C2)OCO3)(C4=CC5=C(C=C4)OCO5)O)C(=O)OC6=CC=C(C=C6)[N+](=O)[O-] [JZL-184]
In short: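 Lung cancer cell lines in 1536-well plates were kept overnight at 37 °C, then pinned with five library-drug doses (not always all listed) spaced by √10 on vehicle-anchored plates. After 5 days without medium change, cells were fixed, permeabilised and Hoechst-stained in one step, imaged at 4×, and nuclei were counted with MetaXpress. Viability is treated-well nuclei divided by vehicle-well nuclei, taken as the median over plates. Plates passed only with control CV below 25% and at least one doubling.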

JZL-184 + Pemetrexed = compound: C1CN(CCC1C(C2=CC3=C(C=C2)OCO3)(C4=CC5=C(C=C4)OCO5)O)C(=O)OC6=CC=C(C=C6)[N+](=O)[O-] [JZL-184] + Nc1nc2[nH]cc(CCc3ccc(C(=O)N[C@@H](CCC(=O)O)C(=O)O)cc3)c2c(=O)[nH]1 [Pemetrexed] (partner 0.2 µM)
In short: (§1)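 Lung cancer cell lines in 1536-well plates were dosed by pin tool the day after seeding, either with one drug alone or with a fixed anchor-drug dose plus five library-drug doses (not always all listed) in √10 steps. After 5 days, cells were fixed and their nuclei stained in one step (final 0.05% Triton X-100, 1% formaldehyde, 1 ug/ml Hoechst), then counted on 4× images. Relative viability is the nuclei count in treated wells divided by that in vehicle wells. Values are medians of duplicate plates.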

JZL-184 + OSI-027 = compound: C1CN(CCC1C(C2=CC3=C(C=C2)OCO3)(C4=CC5=C(C=C4)OCO5)O)C(=O)OC6=CC=C(C=C6)[N+](=O)[O-] [JZL-184] + COc1cccc2cc(-c3nc([C@H]4CC[C@H](C(=O)O)CC4)n4ncnc(N)c34)[nH]c12 [OSI-027] (partner 0.5 µM)
In short: as §1

JZL-184 + Vorinostat = compound: C1CN(CCC1C(C2=CC3=C(C=C2)OCO3)(C4=CC5=C(C=C4)OCO5)O)C(=O)OC6=CC=C(C=C6)[N+](=O)[O-] [JZL-184] + O=C(CCCCCCC(=O)Nc1ccccc1)NO [Vorinostat] (partner 1 µM)
In short: as §1

JZL-184 + AZD7762 = compound: C1CN(CCC1C(C2=CC3=C(C=C2)OCO3)(C4=CC5=C(C=C4)OCO5)O)C(=O)OC6=CC=C(C=C6)[N+](=O)[O-] [JZL-184] + NC(=O)Nc1cc(-c2cccc(F)c2)sc1C(=O)N[C@H]1CCCNC1 [AZD7762] (partner 0.2 µM)
In short: as §1

JZL-184 + Trametinib = compound: C1CN(CCC1C(C2=CC3=C(C=C2)OCO3)(C4=CC5=C(C=C4)OCO5)O)C(=O)OC6=CC=C(C=C6)[N+](=O)[O-] [JZL-184] + CC(=O)Nc1cccc(-n2c(=O)n(C3CC3)c(=O)c3c(Nc4ccc(I)cc4F)n(C)c(=O)c(C)c32)c1 [Trametinib] (partner 0.02 µM)
In short: as §1

JZL-184 + Decitabine = compound: C1CN(CCC1C(C2=CC3=C(C=C2)OCO3)(C4=CC5=C(C=C4)OCO5)O)C(=O)OC6=CC=C(C=C6)[N+](=O)[O-] [JZL-184] + Nc1ncn([C@H]2C[C@H](O)[C@@H](CO)O2)c(=O)n1 [Decitabine] (partner 2 µM)
In short: as §1

JZL-184 + Palbociclib = compound: C1CN(CCC1C(C2=CC3=C(C=C2)OCO3)(C4=CC5=C(C=C4)OCO5)O)C(=O)OC6=CC=C(C=C6)[N+](=O)[O-] [JZL-184] + CC(=O)c1c(C)c2cnc(Nc3ccc(N4CCNCC4)cn3)nc2n(C2CCCC2)c1=O [Palbociclib] (partner 0.5 µM)
In short: as §1

JZL-184 + Tozasertib = compound: C1CN(CCC1C(C2=CC3=C(C=C2)OCO3)(C4=CC5=C(C=C4)OCO5)O)C(=O)OC6=CC=C(C=C6)[N+](=O)[O-] [JZL-184] + Cc1cc(Nc2cc(N3CCN(C)CC3)nc(Sc3ccc(NC(=O)C4CC4)cc3)n2)n[nH]1 [Tozasertib] (partner 0.1 µM)
In short: as §1

JZL-184 + Olaparib = compound: C1CN(CCC1C(C2=CC3=C(C=C2)OCO3)(C4=CC5=C(C=C4)OCO5)O)C(=O)OC6=CC=C(C=C6)[N+](=O)[O-] [JZL-184] + O=C(c1cc(Cc2n[nH]c(=O)c3ccccc23)ccc1F)N1CCN(C(=O)C2CC2)CC1 [Olaparib] (partner 8 µM)
In short: as §1

Q: With NCI-H1648 as the cell line, how does the relative viability (JZL-184; 0.04 µM) read?
A: The relative viability was 0.593.

Q: What about the relative viability (JZL-184; 0.4 µM) of the same cell line?
A: Its relative viability is 0.893.

Q: And the relative viability (JZL-184; 1.265 µM)?
A: Its relative viability is 1.07.

Q: And the relative viability (JZL-184; 4 µM)?
A: The relative viability was 1.08.

Q: And the relative viability (JZL-184 + Pemetrexed; first compound 0.04 µM)?
A: The relative viability was 0.712.

Q: And the relative viability (JZL-184 + Pemetrexed; first compound 0.4 µM)?
A: The relative viability was 0.832.

Q: And the relative viability (JZL-184 + Pemetrexed; first compound 1.265 µM)?
A: Its relative viability is 0.651.

Q: What about the relative viability (JZL-184 + Pemetrexed; first compound 4 µM) of the same cell line?
A: Its relative viability is 0.564.

Q: What about the relative viability (JZL-184 + OSI-027; first compound 0.4 µM) of the same cell line?
A: Its relative viability is 0.24.

Q: And the relative viability (JZL-184 + OSI-027; first compound 1.265 µM)?
A: Its relative viability is 0.257.

Q: And the relative viability (JZL-184 + OSI-027; first compound 4 µM)?
A: The relative viability was 0.223.

Q: What about the relative viability (JZL-184 + Vorinostat; first compound 0.04 µM) of the same cell line?
A: The relative viability was 0.307.

Q: What about the relative viability (JZL-184 + Vorinostat; first compound 0.4 µM) of the same cell line?
A: The relative viability was 0.434.

Q: And the relative viability (JZL-184 + Vorinostat; first compound 1.265 µM)?
A: Its relative viability is 0.754.

Q: And the relative viability (JZL-184 + Vorinostat; first compound 4 µM)?
A: Its relative viability is 0.421.

Q: And the relative viability (JZL-184 + AZD7762; first compound 0.04 µM)?
A: The relative viability was 0.694.

Q: And the relative viability (JZL-184 + AZD7762; first compound 0.4 µM)?
A: The relative viability was 0.719.

Q: And the relative viability (JZL-184 + AZD7762; first compound 1.265 µM)?
A: The relative viability was 0.824.

Q: And the relative viability (JZL-184 + AZD7762; first compound 4 µM)?
A: The relative viability was 0.706.

Q: And the relative viability (JZL-184 + Trametinib; first compound 0.04 µM)?
A: The relative viability was 0.402.

Q: What about the relative viability (JZL-184 + Trametinib; first compound 0.4 µM) of the same cell line?
A: Its relative viability is 0.413.

Q: What about the relative viability (JZL-184 + Trametinib; first compound 1.265 µM) of the same cell line?
A: Its relative viability is 0.481.

Q: And the relative viability (JZL-184 + Trametinib; first compound 4 µM)?
A: The relative viability was 0.445.

Q: And the relative viability (JZL-184 + Decitabine; first compound 0.04 µM)?
A: The relative viability was 0.437.

Q: And the relative viability (JZL-184 + Decitabine; first compound 0.4 µM)?
A: Its relative viability is 0.551.

Q: What about the relative viability (JZL-184 + Decitabine; first compound 1.265 µM) of the same cell line?
A: Its relative viability is 0.546.

Q: What about the relative viability (JZL-184 + Decitabine; first compound 4 µM) of the same cell line?
A: The relative viability was 0.549.

Q: And the relative viability (JZL-184 + Palbociclib; first compound 0.04 µM)?
A: The relative viability was 0.271.

Q: And the relative viability (JZL-184 + Palbociclib; first compound 0.4 µM)?
A: Its relative viability is 0.238.

Q: What about the relative viability (JZL-184 + Palbociclib; first compound 1.265 µM) of the same cell line?
A: Its relative viability is 0.233.

Q: And the relative viability (JZL-184 + Palbociclib; first compound 4 µM)?
A: Its relative viability is 0.297.

Q: What about the relative viability (JZL-184 + Tozasertib; first compound 0.4 µM) of the same cell line?
A: Its relative viability is 0.491.

Q: What about the relative viability (JZL-184 + Tozasertib; first compound 1.265 µM) of the same cell line?
A: Its relative viability is 0.466.

Q: And the relative viability (JZL-184 + Tozasertib; first compound 4 µM)?
A: Its relative viability is 0.538.

Q: What about the relative viability (JZL-184 + Olaparib; first compound 0.04 µM) of the same cell line?
A: Its relative viability is 1.03.

Q: And the relative viability (JZL-184 + Olaparib; first compound 0.4 µM)?
A: Its relative viability is 0.853.

Q: What about the relative viability (JZL-184 + Olaparib; first compound 1.265 µM) of the same cell line?
A: The relative viability was 0.783.

Q: And the relative viability (JZL-184 + Olaparib; first compound 4 µM)?
A: Its relative viability is 0.626.
